Laboratory results from patent publication US6372209B1, “Vaginal lactobacillus medicant” (Gyne Logix, Inc., priority 1997, dated 2002).

Assay: Cell to preservation matrix ratio: viability counts pre- and post-dry
Type: physicochemical
Conditions: 30 microliter aliquots
Protocol: Experiments were conducted to determine the preservative capacity of the suspending medium by addition of different amounts of cells of strain CTV-05 per volume of medium. The Lactobacilli were grown anaerobically on 2 inch squares on MRS agar plates. A 2-inch square of agar is the equivalent of 10 ml of broth. The anticipated yield per plate was 2×10^9 CFUs. Inoculated matrix was preserved in aliquots of 30 microliters.

[1] = 4 plates/5 ml matrix, 24 hr. Growth Period
[2] = 4 plates/5 ml matrix, 48 hr. Growth Period
[3] = 6 plates/5 ml matrix, 24 hr. Growth Period
[4] = 6 plates/5 ml matrix, 48 hr. Growth Period
[5] = 8 plates/5 ml matrix, 24 hr. Growth Period
[6] = 8 plates/5 ml matrix, 48 hr. Growth Period
[7] = 10 plates/5 ml matrix, 24 hr. Growth Period
[8] = 10 plates/5 ml matrix, 48 hr. Growth Period

Substance: Lactobacillus crispatus CTV-05
- Actual Yields, Post-dry [1]: 1.1 × 10^7 CFUs
- Actual Yields, Pre-dry [1]: 7.9 × 10^7 CFUs
- Actual Yields, Post-dry [2]: 6.1 × 10^8 CFUs
- Actual Yields, Pre-dry [2]: 6.0 × 10^8 CFUs
- Actual Yields, Post-dry [3]: 2.1 × 10^7 CFUs
- Actual Yields, Pre-dry [3]: 1.9 × 10^8 CFUs
- Actual Yields, Post-dry [4]: 3.0 × 10^8 CFUs
- Actual Yields, Pre-dry [4]: 7.8 × 10^8 CFUs
- Actual Yields, Post-dry [5]: 3.6 × 10^7 CFUs
- Actual Yields, Pre-dry [5]: 6.9 × 10^7 CFUs
- Actual Yields, Post-dry [6]: 4.3 × 10^8 CFUs
- Actual Yields, Pre-dry [6]: 9.8 × 10^8 CFUs
- Actual Yields, Post-dry [7]: 4.0 × 10^7 CFUs
- Actual Yields, Pre-dry [7]: 6.7 × 10^7 CFUs
- Actual Yields, Post-dry [8]: 4.1 × 10^8 CFUs
- Actual Yields, Pre-dry [8]: 1.5 × 10^8 CFUs
